Assay results: patent US20210403465A1, “QUINAZOLINYL-INDAZOLE DERIVATIVES AND THEIR USE AS INHIBITORS OF HUMAN IMMUNODEFICIENCY VIRUS REPLICATION” (ViiV HEALTHCARE UK (NO.5) LIMITED, priority 2018, published 2021)
pEC50: −log10 of the molar value.

Key:
[1] = test system: recombinant NL4-3 virus (Renilla luciferase) in MT-2 cells; assay: HIV cell culture assay (antiviral activity, luciferase readout in MT-2 cells); type: cell-based; details: NL43
Procedure: HIV cell culture assay—MT-2 cells, 293T cells and the proviral DNA clone of NL4-3 virus were obtained from the NIH AIDS Research and Reference Reagent Program. MT-2 cells were propagated in RPMI 1640 media supplemented with 10% heat inactivated fetal bovine serum (FBS), […]. The 293T cells were propagated in DMEM media supplemented with 10% heat inactivated FBS, […]. A recombinant NL4-3 proviral clone, in which a section of the nef gene was replaced with the Renilla luciferase gene, was used to make the reference virus used in these studies. The recombinant virus was prepared through transfection of the recombinant NL4-3 proviral clone into 293T cells using Transit-293 Transfection Reagent from Mirus Bio LLC (Madison, Wis.). Supernatant was harvested after 2-3 days and the amount of virus present was titered in MT-2 cells using luciferase enzyme activity as a marker by measuring luciferase enzyme activity. Luciferase was quantitated using the EnduRen Live Cell Substrate from Promega (Madison, Wis.). Antiviral activities of compounds toward the recombinant virus were quantified by measuring luciferase activity in MT-2 cells infected for 4-5 days with the recombinant virus in the presence of serial dilutions of the compound.
The 50% effective concentration (EC50) was calculated by using the exponential form of the median effect equation where (Fa)=1/[1+(ED50/drug conc.)m] (Johnson V A, Byington R T. Infectivity Assay. In Techniques in HIV Research. ed. Aldovini A, Walker B D. 71-76. New York: Stockton Press. 1990). The 50% inhibitory concentration (EC50) was calculated by using the exponential form of the median effect equation where percent inhibition=1/[1+(EC50/drug concentration)m], where m is a parameter that reflects the slope of the concentration-response curve.

[2] = Compound cytotoxicity, XTT-based colorimetric assay; type: cell-based; details: human; uninfected MT2 cells, day 4, XTT
Procedure: Compound cytotoxicity and the corresponding CC50 values were determined using the same protocol as described in the antiviral assay except that uninfected cells were used. Cytotoxicity was assessed on day 4 in uninfected MT2 cells by using a XTT (2,3-bis[2-Methoxy-4-nitro-5-sulfophenyl]-2H-tetrazolium-5-carboxyanilide inner salt)-based colorimetric assay (Sigma-Aldrich, St Louis, Mo.).

## Cn1nc(NS(C)(=O)=O)c2c(Cl)ccc(-n3c([C@H](Cc4cc(F)cc(F)c4)NC(=O)Cn4nc(C(F)F)c5c4C(F)(F)[C@@H]4C[C@H]54)nc4cc(OCC5CCCCC5)ccc4c3=O)c21 (atropisomer, axis not shown; (P)) [Example 3, N—((S)-1-((3P)-3-(4-chloro-1-methyl-3-(methylsulfonamido)-1H-indazol-7-yl)-7-(cyclohexylmethoxy)-4-oxo-3,4-dihydroquinazolin-2-yl)-2-(3,5-difluorophenyl)ethyl)-2-((3bS,4aR)-3-(difluoromethyl)-5,5-difluoro-3b,4,4a,5-tetrahydro-1H-cyclopropa[3,4]cyclopenta[1,2-c]pyrazol-1-yl)acetamide]
[1]
  pEC50: 9.33
[2]
  CC50 at 4 days: > 1000 nM

## Cn1nc(NS(C)(=O)=O)c2c(Cl)ccc(-n3c([C@H](Cc4cc(F)cc(F)c4)NC(=O)Cn4nc(C(F)F)c5c4C(F)(F)[C@@H]4C[C@H]54)nc4cc(OCCC(C)(C)C(F)(F)F)ccc4c3=O)c21 (atropisomer, axis not shown; (P)) [Example 14, N—((S)-1-((3P)-3-(4-chloro-1-methyl-3-(methylsulfonamido)-1H-indazol-7-yl)-4-oxo-7-(4,4,4-trifluoro-3,3-dimethylbutoxy)-3,4-dihydroquinazolin-2-yl)-2-(3,5-difluorophenyl)ethyl)-2-((3bS,4aR)-3-(difluoromethyl)-5,5-difluoro-3b,4,4a,5-tetrahydro-1H-cyclopropa[3,4]cyclopenta[1,2-c]pyrazol-1-yl)acetamide]
[1]
  pEC50: 9.64
[2]
  CC50 at 4 days: > 500 nM

## Cn1nc(NS(C)(=O)=O)c2c(Cl)ccc(-n3c([C@H](Cc4cc(F)cc(F)c4)NC(=O)Cn4nc(C(F)F)c5c4C(F)(F)[C@@H]4C[C@H]54)nc4cc(OC5CCOCC5)ccc4c3=O)c21 (atropisomer, axis not shown; (P)) [Example 10, N—((S)-1-((3P)-3-(4-chloro-1-methyl-3-(methylsulfonamido)-1H-indazol-7-yl)-4-oxo-7-((tetrahydro-2H-pyran-4-yl)oxy)-3,4-dihydroquinazolin-2-yl)-2-(3,5-difluorophenyl)ethyl)-2-((3bS,4aR)-3-(difluoromethyl)-5,5-difluoro-3b,4,4a,5-tetrahydro-1H-cyclopropa[3,4]cyclopenta[1,2-c]pyrazol-1-yl)acetamide]
[1]
  pEC50: 10.44
[2]
  CC50 at 4 days: > 1000 nM

## Cn1nccc1CCOc1ccc2c(=O)n(-c3ccc(Cl)c4c(NS(C)(=O)=O)nn(C)c34)c([C@H](Cc3cc(F)cc(F)c3)NC(=O)Cn3nc(C(F)F)c4c3C(F)(F)[C@@H]3C[C@H]43)nc2c1 (atropisomer, axis not shown; (P)) [Example 7, N—((S)-1-((3P)-3-(4-chloro-1-methyl-3-(methylsulfonamido)-1H-indazol-7-yl)-7-(2-(1-methyl-1H-pyrazol-5-yl)ethoxy)-4-oxo-3,4-dihydroquinazolin-2-yl)-2-(3,5-difluorophenyl)ethyl)-2-((3bS,4aR)-3-(difluoromethyl)-5,5-difluoro-3b,4,4a,5-tetrahydro-1H-cyclopropa[3,4]cyclopenta[1,2-c]pyrazol-1-yl)acetamide]
[1]
  pEC50: 10.13
[2]
  CC50 at 4 days: > 1000 nM

## Cn1nc(NS(C)(=O)=O)c2c(Cl)ccc(-n3c([C@H](Cc4cc(F)cc(F)c4)NC(=O)Cn4nc(C(F)F)c5c4C(F)(F)[C@@H]4C[C@H]54)nc4cc(OCCOc5ccccc5)ccc4c3=O)c21 (atropisomer, axis not shown; (P)) [Example 5, N—((S)-1-((3P)-3-(4-chloro-1-methyl-3-(methylsulfonamido)-1H-indazol-7-yl)-4-oxo-7-(2-phenoxyethoxy)-3,4-dihydroquinazolin-2-yl)-2-(3,5-difluorophenyl)ethyl)-2-((3bS,4aR)-3-(difluoromethyl)-5,5-difluoro-3b,4,4a,5-tetrahydro-1H-cyclopropa[3,4]cyclopenta[1,2-c]pyrazol-1-yl)acetamide]
[1]
  pEC50: 9.44
[2]
  CC50 at 4 days: > 1000 nM

## Cn1nc(NS(C)(=O)=O)c2c(Cl)ccc(-n3c([C@H](Cc4cc(F)cc(F)c4)NC(=O)Cn4nc(C(F)F)c5c4C(F)(F)[C@@H]4C[C@H]54)nc4cc(OC5CCCC5)ccc4c3=O)c21 (atropisomer, axis not shown; (P)) [Example 9, N—((S)-1-((3P)-3-(4-chloro-1-methyl-3-(methylsulfonamido)-1H-indazol-7-yl)-7-(cyclopentyloxy)-4-oxo-3,4-dihydroquinazolin-2-yl)-2-(3,5-difluorophenyl)ethyl)-2-((3bS,4aR)-3-(difluoromethyl)-5,5-difluoro-3b,4,4a,5-tetrahydro-1H-cyclopropa[3,4]cyclopenta[1,2-c]pyrazol-1-yl)acetamide]
[1]
  pEC50: 9.66
[2]
  CC50 at 4 days: > 1000 nM

## Cn1nc(NS(C)(=O)=O)c2c(Cl)ccc(-n3c([C@H](Cc4cc(F)cc(F)c4)NC(=O)Cn4nc(C(F)F)c5c4C(F)(F)[C@@H]4C[C@H]54)nc4cc(OCCC(C)(C)C)ccc4c3=O)c21 (atropisomer, axis not shown; (P)) [Example 6, N—((S)-1-((3P)-3-(4-chloro-1-methyl-3-(methylsulfonamido)-1H-indazol-7-yl)-7-(3,3-dimethylbutoxy)-4-oxo-3,4-dihydroquinazolin-2-yl)-2-(3,5-difluorophenyl)ethyl)-2-((3bS,4aR)-3-(difluoromethyl)-5,5-difluoro-3b,4,4a,5-tetrahydro-1H-cyclopropa[3,4]cyclopenta[1,2-c]pyrazol-1-yl)acetamide]
[1]
  pEC50: 9.74
[2]
  CC50 at 4 days: > 1000 nM

## Cn1nc(NS(C)(=O)=O)c2c(Cl)ccc(-n3c([C@H](Cc4cc(F)cc(F)c4)NC(=O)Cn4nc(C(F)F)c5c4C(F)(F)[C@@H]4C[C@H]54)nc4cc(OCc5cncnc5)ccc4c3=O)c21 (atropisomer, axis not shown; (P)) [Example 11, N—((S)-1-((3P)-3-(4-chloro-1-methyl-3-(methylsulfonamido)-1H-indazol-7-yl)-4-oxo-7-(pyrimidin-5-ylmethoxy)-3,4-dihydroquinazolin-2-yl)-2-(3,5-difluorophenyl)ethyl)-2-((3bS,4aR)-3-(difluoromethyl)-5,5-difluoro-3b,4,4a,5-tetrahydro-1H-cyclopropa[3,4]cyclopenta[1,2-c]pyrazol-1-yl)acetamide]
[1]
  pEC50: 10.18
[2]
  CC50 at 4 days: > 1000 nM

## Cn1nc(NS(C)(=O)=O)c2c(Cl)ccc(-n3c([C@H](Cc4cc(F)cc(F)c4)NC(=O)Cn4nc(C(F)F)c5c4C(F)(F)[C@@H]4C[C@H]54)nc4cc(OCCOC(F)F)ccc4c3=O)c21 (atropisomer, axis not shown; (P)) [Example 15, N—((S)-1-((3P)-3-(4-chloro-1-methyl-3-(methylsulfonamido)-1H-indazol-7-yl)-7-(2-(difluoromethoxy)ethoxy)-4-oxo-3,4-dihydroquinazolin-2-yl)-2-(3,5-difluorophenyl)ethyl)-2-((3bS,4aR)-3-(difluoromethyl)-5,5-difluoro-3b,4,4a,5-tetrahydro-1H-cyclopropa[3,4]cyclopenta[1,2-c]pyrazol-1-yl)acetamide]
[1]
  pEC50: 10.29
[2]
  CC50 at 4 days: > 500 nM
